Data on 12 molecules can be found in article PMC6680806, “Preparation of Retinoyl-Flavonolignan Hybrids and Their Antioxidant Properties” (Antioxidants, 2019).

Series [1] relates to HepG2 cell line. The series is described as follows: Cellular antioxidant activity (CAA). The note with it: Homo sapiens; HepG2 cells, DCFH-DA/AAPH; > = no activity noted at the highest concentration tested. Type of series: cell-based. The protocol:
For cellular antioxidant activity (CAA) assay, the HepG2 cell line (ATCC, CCL-23TM, USA) was cultivated in Eagle’s Minimum Essential Medium (Sigma-Aldrich, USA) supplemented with 10% of foetal bovine serum, 2 mM L-glutamine and 1× Antibiotic Antimycotic Solution (Sigma-Aldrich, St. Louis, MO, USA) in a CO2 incubator (5% CO2, 37 °C, Thermo Fisher Scientific, Waltham, MA, USA) and passaged 2×/week using trypsin-EDTA solution. For the experiments, 100 µL of the cells (1 × 10^6 cells/mL, Cellometer Auto T4 Bright Field Cell Counter, Nexcelom Bioscience, Lawrence, MA, USA) were split into 96-well plates. After 24 h, the cells were washed 3× with PBS (MultiFlo Multi-Mode Dispenser, BioTek, USA) and Dulbecco’s Modified Eagle’s Medium (Sigma-Aldrich, St. Louis, MO, USA) supplemented with the 2′,7′-dichlorodihydrofluorescein diacetate (DCFH-DA, 0.0125 mg/mL) was added to each well together with the tested samples in the concentration range 0–500 µM. After incubation (1 h, CO2 incubator, 37 °C), the medium was manually replaced for AAPH solution (0.16 mg/mL) and the fluorescence (ex./em. 485/540 nm) was recorded immediately for 2 h with 5 min steps.
(§1) The main disadvantage of DPPH scavenging assay is the use of an unnatural radical. Such methods based on competitive probe reactions or indirect methods based on persistent radicals should only be used for preliminary screening purposes. Thus, to better characterize the potential of the obtained conjugates in terms of their biological activity, a series of simple, rapid, sensitive and reproducible biochemical antioxidant assays including FRAP, CUPRAC and ORAC [38] and a more relevant cellular antioxidant activity (CAA [37]) was measured (Table 2). […] Therefore, in this study, we compared two methods with the same mechanism of action: ORAC assay was performed as a classical biochemical method presenting the ability of tested compounds to quench peroxyl radicals generated from AAPH to protect fluorescein from oxidation. This assay serves better as a physical description of the tested compounds [37]. To reflect biological aspect, CAA was measured using the liver carcinoma HepG2 cell line where the compound must enter the cell to fulfil its role as an antioxidant. The CAA assay partially includes the bioavailability, aspects of uptake and metabolism.

The nature of series [2]: DPPH radical scavenging. It counts as biochemical. The note with it: 20 µM DPPH in methanol, 30 min, 25 °C, mean ± standard error. The protocol:
The radical scavenging activity of the prepared conjugates, their parent compounds, their equimolar mixtures and retinol was evaluated as their capacity to scavenge 1,1-diphenyl-2-picrylhydrazyl radicals (DPPH, Sigma-Aldrich, Prague, Czech Republic), as described previously with minor modifications. Briefly, 15 µL of the tested substance (final concentration 0–20 mM in DMSO) was mixed with 285 µL of a freshly prepared methanolic DPPH solution (final concentration 20 µM) in a microtiter plate well. After 30 min at 25 °C, the absorbance at 517 nm was measured. The activity was expressed as the concentration of the compound required for reducing the absorbance to 50% (IC50) of its initial value.
(In general: The DPPH test is a chemical assay of radical scavenging.)

Series [3] can be described thus: Cupric reducing antioxidant capacity (CUPRAC). Type of series: biochemical. The note with it: mean ± standard error; values marked f: measurement disturbed by the formation of a precipitate. The protocol: (§2) Ferric reducing antioxidant power (FRAP) and cupric reducing antioxidant capacity (CUPRAC) were measured using kits from Bioquochem (Llanera-Asturias, Spain) according to the manufacturer´s instructions and expressed as trolox equivalents (TE). To determine oxygen radical absorption capacity (ORAC), 73 µL of fluorescein (1.8 mg/L) solution in phosphate buffered saline (PBS, pH 7.4) was mixed with 2 µL of the samples (0–20 µM) in the wells of a 96-well plate. After 15 min incubation (37 °C), 25 µL of freshly prepared 2,2′-azo-bis(2-amidinopropane) dihydrochloride (AAPH, 60 mg/mL) was added to each well except for the negative control, where AAPH was replaced for PBS. The fluorescence (ex./em., 485/535 nm) was recorded immediately and for the next 2 h with the measurement step for 5 min using a microplate reader (SpectraMax i3 Multi-Mode Detection Platform, Molecular Devices, Wokingham, UK).
(§3) The oxidations in living organism caused by free radicals are usually undesirable processes damaging such important biomolecules as DNA, proteins and lipids. The application of antioxidants is one of the most straightforward means to protect these biomolecules from oxidative stress. Many assays are available for determination of antioxidant potential in vitro. These assays are based on the reduction of stable radicals (DPPH), on the competitive bleaching of a probe (ORAC) or on the reduction of iron ions (CUPRAC, FRAP). CUPRAC test is very similar to FRAP assay but is based on the reduction of Cu^2+ in a neutral pH, while FRAP test is based on Fe^3+ in acidic pH. As each assay suffers from some limitations, a set of antioxidant tests was used here to combine more parameters.

Series [4] is described as follows: Oxygen radical absorption capacity (ORAC). It counts as biochemical. The note with it: fluorescein/AAPH, PBS pH 7.4, 37 °C; mean ± standard error. The procedure:
as §2, §1

Series [5] in a line: Ferric reducing antioxidant power (FRAP). It counts as biochemical. The note with it: mean ± standard error. The protocol:
as §2, §3

Series [6] is described as follows: Stability of sample during ORAC and CAA measurement. It counts as physicochemical. The procedure: Dose-dependent curves were obtained in both ORAC and CAA assay for single compounds resulting in IC50 determination (Table 2). In contrast, no anti-oxidant activity of the conjugates was detected in liver cells in all the concentration range tested up to 50 or 500 µM. In fact, such a large concentration is not expectable in plasma.

Where [7] appears, read: covalent retinoyl conjugate, read-out: DPPH radical scavenging activity (IC50), conjugate with retinoic acid.
The mark [8] stands for this setting: parent compound alone, read-out: DPPH radical scavenging activity (IC50), parent compound.

As a reminder, the IC50 is the concentration that gives 50% inhibition.

Molecules are shown by their SMILES. Values joined by “and” are separate entries in the source; they are usually repeats but may differ in a detail not shown here. Equal entries are not always repeated.

On to `COc1cc([C@H]2Oc3ccc([C@H]4Oc5cc(OC(=O)/C=C(C)/C=C/C=C(C)/C=C/C6=C(C)CCCC6(C)C)cc(O)c5C(=O)[C@@H]4O)cc3O[C@@H]2CO)ccc1O` [8a, Isosilybin A-7-O-retinoate], for which the half-maximal inhibitory concentration (IC50) was above 500 µM in series [1], 2360 µM in series [2] (setting [7]) and 174 ± 7 µM in series [4]. In series [3], the “CUPRAC (cupric reducing antioxidant capacity)” value was 0.11 ± 0.01^f TE. Also, the “FRAP (ferric-reducing antioxidant potential, trolox equivalents)” value in series [5] is listed as 0.022 ± 0.003 *^,# TE.
With `CC1=C(/C=C/C(C)=C/C=C/C(C)=C/CO)C(C)(C)CCC1` [compound 1, Retinol], the IC50 in series [1] was 1270 ± 147 µM; in series [2] (setting [8]), 1480 µM and 745 µM; in series [4] it was 169 ± 12 µM. Also, the “CUPRAC (cupric reducing antioxidant capacity)” value in series [3] is listed as 0.09 ± 0.01^f TE. Moreover, in series [5], the “FRAP (ferric-reducing antioxidant potential, trolox equivalents)” value is listed as 1.76 ± 0.04 TE.
As to `COc1cc([C@H]2Oc3cc([C@H]4Oc5cc(O)cc(O)c5C(=O)[C@@H]4O)ccc3O[C@@H]2CO)ccc1O` [3a, silybin A], the results for the IC50 in series [1], in series [2] (setting [8]) and in series [4] were 10 ± 0.7 µM, 818 ± 22 µM and 8.5 ± 0.4 µM, respectively. In addition, in series [3], the “CUPRAC (cupric reducing antioxidant capacity)” value is reported as 0.20 ± 0.00 TE. Also, the “FRAP (ferric-reducing antioxidant potential, trolox equivalents)” value in series [5] is reported as 0.278 ± 0.005 TE.
As for `COc1cc(C2Oc3cc([C@H]4Oc5cc(OC(=O)/C=C(C)/C=C/C=C(C)/C=C/C6=C(C)CCCC6(C)C)cc(O)c5C(=O)[C@@H]4O)ccc3OC2CO)ccc1O` (stereo partly drawn) [6ab, Silybin-7-O-retinoate], the results for the IC50 in series [1], in series [2] (setting [7]) and in series [4] were above 500 µM, 666 µM and 91 ± 4 µM, respectively. Besides, the “CUPRAC (cupric reducing antioxidant capacity)” value in series [3] was determined as 0.22 ± 0.01 TE. In series [5], the “FRAP (ferric-reducing antioxidant potential, trolox equivalents)” value is on record as 0.03 ± 0.02 *^,# TE.
On to `COc1cc([C@@H]2Oc3cc([C@H]4Oc5cc(O)cc(O)c5C(=O)[C@@H]4O)ccc3O[C@H]2CO)ccc1O` [3b, silybin B], for which the IC50 in series [1] came out at 6.8 ± 0.5 µM; in series [2] (setting [8]), 659 ± 29 µM; in series [4] it was 8 ± 0.3 µM. The “CUPRAC (cupric reducing antioxidant capacity)” value in series [3] is 0.16 ± 0.02 TE. Further, the “FRAP (ferric-reducing antioxidant potential, trolox equivalents)” value in series [5] was 0.268 ± 0.009 TE.
Take `COc1cc([C@H]2Oc3ccc([C@H]4Oc5cc(O)cc(O)c5C(=O)[C@@H]4O)cc3O[C@@H]2CO)ccc1O` [5a, isosilybin A]: the values for the half-inhibitory concentration (IC50) in series [1], in series [2] (setting [8]) and in series [4] were above 100 µM, 783 ± 9 µM and 4.3 ± 1.1 µM, respectively. For the same molecule, in series [3], the “CUPRAC (cupric reducing antioxidant capacity)” value is recorded as 0.16 ± 0.02 TE. In series [5], the “FRAP (ferric-reducing antioxidant potential, trolox equivalents)” value is reported as 0.280 ± 0.006 TE.
Regarding `COc1cc([C@@H]2Oc3cc([C@H]4Oc5cc(OC(=O)/C=C(C)/C=C/C=C(C)/C=C/C6=C(C)CCCC6(C)C)cc(O)c5C(=O)[C@@H]4O)ccc3O[C@H]2CO)ccc1O` [6b, Silybin B-7-O-retinoate], the half-maximal inhibitory concentration (IC50) is above 500 µM in series [1], 540 µM in series [2] (setting [7]) and 230 ± 8 µM in series [4]. Also, in series [3], the “CUPRAC (cupric reducing antioxidant capacity)” value is reported as 0.04 ± 0.01^f TE. Besides, the “FRAP (ferric-reducing antioxidant potential, trolox equivalents)” value in series [5] is 0.010 ± 0.001 *^,# TE.
For `COc1cc(C2Oc3cc(-c4oc5cc(O)cc(O)c5c(=O)c4OC(=O)/C=C(C)/C=C/C=C(C)/C=C/C4=C(C)CCCC4(C)C)ccc3OC2CO)ccc1O` (stereo not drawn) [compound 7, 2,3-Dehydrosilybin AB-3-O-retinoate] the same measures were above 500 µM, 734 µM, 130 ± 7 µM, 0.07 ± 0.02^f TE and 0.034 ± 0.005 *^,# TE.
On to `COc1cc([C@H]2Oc3cc([C@H]4Oc5cc(OC(=O)/C=C(C)/C=C/C=C(C)/C=C/C6=C(C)CCCC6(C)C)cc(O)c5C(=O)[C@@H]4O)ccc3O[C@@H]2CO)ccc1O` [6a, Silybin A-7-O-retinoate], for which the IC50 in series [1] is above 50 µM; in series [2] (setting [7]), 379 µM. In series [6], the “Stability during ORAC and CAA measurement” value was “unstable and decomposed”. For the same molecule, the “CUPRAC (cupric reducing antioxidant capacity)” value in series [3] is given as 0.21 ± 0.02 TE. In addition, in series [5], the “FRAP (ferric-reducing antioxidant potential, trolox equivalents)” value is listed as 0.038 ± 0.002 *^,# TE.
On to `COc1cc(C2Oc3cc([C@H]4Oc5cc(O)cc(O)c5C(=O)[C@@H]4O)ccc3OC2CO)ccc1O` (stereo partly drawn) [3ab, Silybin], for which the values for the IC50 in series [1], in series [2] (setting [8]) and in series [4] were 11.8 ± 0.3 µM, 472 ± 16 µM and 7.8 ± 0.7 µM, respectively. In addition, the “CUPRAC (cupric reducing antioxidant capacity)” value in series [3] was 0.17 ± 0.00 TE. The “FRAP (ferric-reducing antioxidant potential, trolox equivalents)” value in series [5] was 0.335 ± 0.006 TE.
For `COc1cc(C2Oc3cc(-c4oc5cc(O)cc(O)c5c(=O)c4O)ccc3OC2CO)ccc1O` (stereo not drawn) [compound 4, 2,3-dehydrosilybin] the same measures were 10.9 ± 0.5 µM, 19.2 ± 0.3 µM, 9.6 ± 0.4 µM, 0.25 ± 0.00 TE and 4.06 ± 0.05 TE.
For the molecule `CC1=C(/C=C/C(C)=C/C=C/C(C)=C/C(=O)O)C(C)(C)CCC1` [compound 2, Retinoic acid], the IC50 in series [1] was 460 ± 211 µM; in series [2] (setting [8]) it was 745 µM and 1480 µM; in series [4], 13 ± 2 µM. For the same molecule, in series [3], the “CUPRAC (cupric reducing antioxidant capacity)” value was 0.10 ± 0.02^f TE. The “FRAP (ferric-reducing antioxidant potential, trolox equivalents)” value in series [5] came out at 0.62 ± 0.02 TE.
